Experimental findings from paper PMC5620277, “The histone methyltransferase EZH2 as a druggable target in SHH medulloblastoma cancer stem cells” (Oncotarget, 2017) are described below.

For one test, the target named is EZH1 complex (Homo sapiens, UniProt Q92800). In words: Methyltransferase panel: EZH1 complex. In kind it is biochemical. On the procedure:
(§1) MC3629 was tested in the cell free enzymatic assay (EZH2/PRC2) in 10-dose IC50 mode with 2-fold serial dilution starting from 400 μM solution, using various histone substrates (histone H3/H4 octamer, histone H3/H4 tetramer, histone H3, and core histone) and SAM as the co-substrate. […] (Figure 2B, and Supplementary Figure 2).
(§2) The appropriate methyltransferase (MT) substrate (0.05 mg/ml core histone for EZH1 complex, 0.05 mg/ml oligonucleosomes for DOT1L, 5 μM histone H3 (1-21) peptide for G9a, 0.05 mg/ml nucleosomes for MLL1 complex, 0.05 mg/ml core histone for SET7/9, 5 μM histone H4 for PRMT1, and 0.001 mg/ml poly(dI-dC) for DNMT1) was added in freshly prepared Reaction Buffer (50 mM Tris-HCl (pH 8.5), 5 mM MgCl2, 50 mM NaCl, 0.01% Brij35, 1 mM DTT, 1% DMSO). The MT enzyme was delivered into the substrate solution and the mixture was mixed gently. Afterwards, the tested compound dissolved in DMSO was delivered into the enzyme/substrate reaction mixture by using Acoustic Technology (Echo 550, LabCyte Inc. Sunnyvale, CA) in nanoliter range, and 1 μM ^3H-SAM was also added into the reaction mixture to initiate the reaction. The reaction mixture was incubated for 1 h at 30°C and then it was delivered to filter-paper for detection. The data were analyzed using Excel and GraphPad Prism software for IC50 curve fits (for EZH1 complex).

The next test has as its target T1, G9a (Homo sapiens, UniProt Q96KQ7).
T1 sequence (Q96KQ7 1-1210): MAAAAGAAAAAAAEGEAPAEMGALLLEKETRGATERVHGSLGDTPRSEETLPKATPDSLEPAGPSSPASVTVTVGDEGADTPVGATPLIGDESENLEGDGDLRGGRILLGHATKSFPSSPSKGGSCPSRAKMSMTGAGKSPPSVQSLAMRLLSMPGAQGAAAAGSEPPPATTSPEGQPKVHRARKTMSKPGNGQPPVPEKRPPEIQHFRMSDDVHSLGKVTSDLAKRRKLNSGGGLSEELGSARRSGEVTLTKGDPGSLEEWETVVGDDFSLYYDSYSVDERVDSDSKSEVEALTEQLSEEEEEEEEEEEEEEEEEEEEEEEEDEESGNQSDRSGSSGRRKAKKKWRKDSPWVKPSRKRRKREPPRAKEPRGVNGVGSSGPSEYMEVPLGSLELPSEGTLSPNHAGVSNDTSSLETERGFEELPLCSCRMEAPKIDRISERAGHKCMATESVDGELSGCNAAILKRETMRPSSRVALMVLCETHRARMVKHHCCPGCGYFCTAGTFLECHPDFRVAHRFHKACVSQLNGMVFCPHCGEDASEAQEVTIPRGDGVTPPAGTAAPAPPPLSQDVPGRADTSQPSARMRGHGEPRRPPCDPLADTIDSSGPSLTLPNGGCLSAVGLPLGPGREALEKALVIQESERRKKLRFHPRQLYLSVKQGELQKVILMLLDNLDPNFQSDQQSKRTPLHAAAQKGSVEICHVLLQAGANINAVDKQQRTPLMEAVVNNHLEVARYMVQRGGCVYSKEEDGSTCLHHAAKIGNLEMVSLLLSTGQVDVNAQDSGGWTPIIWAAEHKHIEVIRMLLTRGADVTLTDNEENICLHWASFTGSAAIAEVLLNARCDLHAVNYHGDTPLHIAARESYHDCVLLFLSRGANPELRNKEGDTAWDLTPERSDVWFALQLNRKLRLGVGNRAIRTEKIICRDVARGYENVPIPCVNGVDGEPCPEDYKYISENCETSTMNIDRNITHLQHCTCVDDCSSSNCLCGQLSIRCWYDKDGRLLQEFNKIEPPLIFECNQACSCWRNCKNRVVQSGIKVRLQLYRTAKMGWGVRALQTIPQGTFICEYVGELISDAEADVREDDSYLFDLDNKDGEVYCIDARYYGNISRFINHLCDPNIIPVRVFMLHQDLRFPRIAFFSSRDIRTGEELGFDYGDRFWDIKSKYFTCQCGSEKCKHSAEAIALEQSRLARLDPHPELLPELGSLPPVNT
The experiment in a line: Methyltransferase panel: G9a. It is filed as biochemical. As to conditions: substrate histone H3 1-21. On the procedure:
as §1, §2

The next test deals with DNMT1 (Homo sapiens, UniProt P26358). In words: Methyltransferase panel: DNMT1. In kind it is biochemical. The settings on record: substrate Poly dI-dC. On the procedure:
as §1, §2

A further test deals with DAOY-SLCs. In words: Cell death (Trypan blue test) in DAOY-SLCs. In kind it is cell-based. As to conditions: 5 μM, 72 h. As for the experimental part:
Trypan blue exclusion test was used to count viable or death cells present in a cell suspension. Each sample was measured in triplicate and repeated at least three times.

Test [1] deals with DAOY-SLCs orthotopic tumors (XT-MB). The experiment in a line: Xenograft DAOY-SLCs orthotopic tumors (XT-MB) in nude mice. In kind it is in vivo, mouse. The settings on record: 20 μMoles/Kg i.p. twice a week for 3 weeks. As for the experimental part:
Next, we generated xenograft DAOY-SLCs orthotopic tumors (XT-MB) in nude mice that grew as tumor masses with the characteristics of MBs.
DAOY-SLCs were stereotaxically implanted into the cerebellum of nude mice by using the following coordinates according to the atlas of Franklin and Paxinos: 6.6 mm posterior to the bregma; 1 mm lateral to the midline; and 2 mm ventral from the surface of skull of mice, under ketamine (100 mg/kg, i.p.)/xylazine (10 mg/kg, i.p.) anesthesia. Cells (2×10^5 per 3 μl) were implanted at an infusion rate of 1 μl/min. Mice were separated into two groups. Group 1 (n=8) was intraperitoneally treated with MC3629 (20 μMoles/Kg) suspended in 10% (2-Hydroxypropyl)-β-cyclodextrin +1%DMSO (Sigma), Group 2 (n=8) was treated with 10% (2-Hydroxypropyl)-β-cyclodextrin +1%DMSO (Sigma). After 21 days of treatment, animals were sacrificed and brains were formalin fixed and paraffin embedded. Brain tumor volume calculation: Serial thick coronal sections (2 μm) starting from mesencephalon to the end of cerebellum were performed. The analysis was performed on 20 sections, sampled every 40 μm on the horizontal plan of the cerebellum, in which the tumor was identified and outlined at 2.5X magnification.
Every 40 μm of brain slice, hematoxylin and eosin (H&E) staining was performed. Tumor area of every slice was evaluated with a microscope (Axio Imager M1 microscope) equipped with a motorized stage and software Image Pro Plus 6.2. The following formula was used to calculate brain tumor volume: tumor volume = sum of (measured area for each slice x slice thickness x sampling frequency).
Paraffin-embedded sections were deparaffinized, and stained with either H&E or immunohistochemical stains as specified. Heat-induced epitope retrieval was performed with citrate buffer pH 6. Sections were incubated with ki67 primary antibody (Thermo Scientific) for 1 h. Ki67 expression was expressed as percentages of total cells with labeled nuclei.

EZH1 complex, sequence (Q92800 whole entry): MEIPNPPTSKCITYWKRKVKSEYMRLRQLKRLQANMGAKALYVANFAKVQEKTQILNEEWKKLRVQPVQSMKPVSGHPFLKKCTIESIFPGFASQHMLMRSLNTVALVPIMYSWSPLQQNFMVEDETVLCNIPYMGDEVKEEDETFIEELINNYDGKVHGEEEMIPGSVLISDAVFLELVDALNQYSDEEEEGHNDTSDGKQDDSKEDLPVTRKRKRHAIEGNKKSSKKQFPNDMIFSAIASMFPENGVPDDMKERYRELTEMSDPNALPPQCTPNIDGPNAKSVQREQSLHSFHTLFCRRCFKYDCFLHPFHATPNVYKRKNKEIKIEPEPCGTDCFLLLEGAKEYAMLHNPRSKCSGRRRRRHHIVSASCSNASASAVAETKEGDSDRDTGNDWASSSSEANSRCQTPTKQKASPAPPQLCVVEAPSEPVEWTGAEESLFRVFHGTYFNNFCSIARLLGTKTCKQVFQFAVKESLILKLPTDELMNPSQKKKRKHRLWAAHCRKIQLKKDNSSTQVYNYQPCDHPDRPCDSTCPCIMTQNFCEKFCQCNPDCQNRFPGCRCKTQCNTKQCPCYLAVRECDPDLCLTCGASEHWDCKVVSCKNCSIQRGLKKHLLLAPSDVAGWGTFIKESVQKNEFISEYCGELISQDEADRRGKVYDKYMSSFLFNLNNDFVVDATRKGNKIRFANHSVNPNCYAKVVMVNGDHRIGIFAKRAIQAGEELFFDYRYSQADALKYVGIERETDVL
EZH1 complex, sequence (O75530 whole entry partner): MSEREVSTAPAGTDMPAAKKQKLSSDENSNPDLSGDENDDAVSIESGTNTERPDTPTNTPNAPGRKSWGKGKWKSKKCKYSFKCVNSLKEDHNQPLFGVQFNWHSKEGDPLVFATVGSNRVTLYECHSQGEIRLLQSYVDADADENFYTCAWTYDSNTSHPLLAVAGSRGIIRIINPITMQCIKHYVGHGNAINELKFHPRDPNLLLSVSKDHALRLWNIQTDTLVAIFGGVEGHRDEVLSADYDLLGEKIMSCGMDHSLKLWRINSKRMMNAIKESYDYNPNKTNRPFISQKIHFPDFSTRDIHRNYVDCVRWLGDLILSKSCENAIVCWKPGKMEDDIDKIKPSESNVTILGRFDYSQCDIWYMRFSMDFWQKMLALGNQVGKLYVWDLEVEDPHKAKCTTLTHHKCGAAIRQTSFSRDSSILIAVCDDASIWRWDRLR
EZH1 complex, sequence (Q15022 whole entry partner): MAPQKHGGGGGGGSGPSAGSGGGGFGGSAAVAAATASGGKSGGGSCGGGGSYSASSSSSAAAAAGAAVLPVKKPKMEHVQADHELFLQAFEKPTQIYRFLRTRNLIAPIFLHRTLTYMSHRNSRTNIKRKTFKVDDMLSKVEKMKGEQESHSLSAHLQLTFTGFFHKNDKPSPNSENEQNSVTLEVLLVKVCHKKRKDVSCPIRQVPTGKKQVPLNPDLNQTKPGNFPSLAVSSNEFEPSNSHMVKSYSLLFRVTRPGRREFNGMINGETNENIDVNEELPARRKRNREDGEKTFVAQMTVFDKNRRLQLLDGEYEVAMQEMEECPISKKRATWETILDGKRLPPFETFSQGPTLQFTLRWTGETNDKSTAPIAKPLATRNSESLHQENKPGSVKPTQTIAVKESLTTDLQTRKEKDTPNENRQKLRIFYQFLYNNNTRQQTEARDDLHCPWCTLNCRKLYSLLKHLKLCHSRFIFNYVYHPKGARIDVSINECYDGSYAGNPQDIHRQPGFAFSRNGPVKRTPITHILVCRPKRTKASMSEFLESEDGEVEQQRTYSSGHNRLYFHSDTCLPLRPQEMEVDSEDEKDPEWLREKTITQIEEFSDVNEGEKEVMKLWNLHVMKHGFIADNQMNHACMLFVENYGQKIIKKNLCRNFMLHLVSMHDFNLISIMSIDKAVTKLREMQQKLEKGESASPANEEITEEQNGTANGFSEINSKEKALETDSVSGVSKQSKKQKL
EZH1 complex, sequence (Q09028 whole entry partner): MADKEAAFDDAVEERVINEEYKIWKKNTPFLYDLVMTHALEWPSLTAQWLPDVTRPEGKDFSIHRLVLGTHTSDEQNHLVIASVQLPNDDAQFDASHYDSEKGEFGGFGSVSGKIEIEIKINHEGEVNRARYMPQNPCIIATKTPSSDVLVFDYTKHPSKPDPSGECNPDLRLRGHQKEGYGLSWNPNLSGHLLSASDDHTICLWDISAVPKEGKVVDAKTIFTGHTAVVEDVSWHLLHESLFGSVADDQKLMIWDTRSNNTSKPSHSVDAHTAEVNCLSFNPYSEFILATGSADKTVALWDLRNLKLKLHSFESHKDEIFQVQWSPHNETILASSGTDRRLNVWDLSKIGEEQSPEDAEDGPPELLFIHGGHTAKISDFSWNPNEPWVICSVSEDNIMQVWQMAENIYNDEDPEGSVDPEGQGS
EZH1 complex, sequence (Q6ZN18 whole entry partner): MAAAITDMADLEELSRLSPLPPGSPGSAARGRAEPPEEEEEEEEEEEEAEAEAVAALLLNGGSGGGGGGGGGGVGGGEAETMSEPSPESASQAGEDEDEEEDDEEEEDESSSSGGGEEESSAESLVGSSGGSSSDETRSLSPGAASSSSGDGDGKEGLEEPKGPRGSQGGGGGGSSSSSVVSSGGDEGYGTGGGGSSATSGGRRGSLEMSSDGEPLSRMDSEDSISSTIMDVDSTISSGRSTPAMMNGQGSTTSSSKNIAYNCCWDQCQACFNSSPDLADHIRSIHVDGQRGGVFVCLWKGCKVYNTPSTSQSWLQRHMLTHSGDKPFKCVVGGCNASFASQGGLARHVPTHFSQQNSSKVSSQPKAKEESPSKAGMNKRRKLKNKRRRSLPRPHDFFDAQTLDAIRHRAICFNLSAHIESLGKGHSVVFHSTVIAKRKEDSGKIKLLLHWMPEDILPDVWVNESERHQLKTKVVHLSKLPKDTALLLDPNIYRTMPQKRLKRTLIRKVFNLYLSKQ
DNMT1, sequence (P26358 whole entry, species assumed): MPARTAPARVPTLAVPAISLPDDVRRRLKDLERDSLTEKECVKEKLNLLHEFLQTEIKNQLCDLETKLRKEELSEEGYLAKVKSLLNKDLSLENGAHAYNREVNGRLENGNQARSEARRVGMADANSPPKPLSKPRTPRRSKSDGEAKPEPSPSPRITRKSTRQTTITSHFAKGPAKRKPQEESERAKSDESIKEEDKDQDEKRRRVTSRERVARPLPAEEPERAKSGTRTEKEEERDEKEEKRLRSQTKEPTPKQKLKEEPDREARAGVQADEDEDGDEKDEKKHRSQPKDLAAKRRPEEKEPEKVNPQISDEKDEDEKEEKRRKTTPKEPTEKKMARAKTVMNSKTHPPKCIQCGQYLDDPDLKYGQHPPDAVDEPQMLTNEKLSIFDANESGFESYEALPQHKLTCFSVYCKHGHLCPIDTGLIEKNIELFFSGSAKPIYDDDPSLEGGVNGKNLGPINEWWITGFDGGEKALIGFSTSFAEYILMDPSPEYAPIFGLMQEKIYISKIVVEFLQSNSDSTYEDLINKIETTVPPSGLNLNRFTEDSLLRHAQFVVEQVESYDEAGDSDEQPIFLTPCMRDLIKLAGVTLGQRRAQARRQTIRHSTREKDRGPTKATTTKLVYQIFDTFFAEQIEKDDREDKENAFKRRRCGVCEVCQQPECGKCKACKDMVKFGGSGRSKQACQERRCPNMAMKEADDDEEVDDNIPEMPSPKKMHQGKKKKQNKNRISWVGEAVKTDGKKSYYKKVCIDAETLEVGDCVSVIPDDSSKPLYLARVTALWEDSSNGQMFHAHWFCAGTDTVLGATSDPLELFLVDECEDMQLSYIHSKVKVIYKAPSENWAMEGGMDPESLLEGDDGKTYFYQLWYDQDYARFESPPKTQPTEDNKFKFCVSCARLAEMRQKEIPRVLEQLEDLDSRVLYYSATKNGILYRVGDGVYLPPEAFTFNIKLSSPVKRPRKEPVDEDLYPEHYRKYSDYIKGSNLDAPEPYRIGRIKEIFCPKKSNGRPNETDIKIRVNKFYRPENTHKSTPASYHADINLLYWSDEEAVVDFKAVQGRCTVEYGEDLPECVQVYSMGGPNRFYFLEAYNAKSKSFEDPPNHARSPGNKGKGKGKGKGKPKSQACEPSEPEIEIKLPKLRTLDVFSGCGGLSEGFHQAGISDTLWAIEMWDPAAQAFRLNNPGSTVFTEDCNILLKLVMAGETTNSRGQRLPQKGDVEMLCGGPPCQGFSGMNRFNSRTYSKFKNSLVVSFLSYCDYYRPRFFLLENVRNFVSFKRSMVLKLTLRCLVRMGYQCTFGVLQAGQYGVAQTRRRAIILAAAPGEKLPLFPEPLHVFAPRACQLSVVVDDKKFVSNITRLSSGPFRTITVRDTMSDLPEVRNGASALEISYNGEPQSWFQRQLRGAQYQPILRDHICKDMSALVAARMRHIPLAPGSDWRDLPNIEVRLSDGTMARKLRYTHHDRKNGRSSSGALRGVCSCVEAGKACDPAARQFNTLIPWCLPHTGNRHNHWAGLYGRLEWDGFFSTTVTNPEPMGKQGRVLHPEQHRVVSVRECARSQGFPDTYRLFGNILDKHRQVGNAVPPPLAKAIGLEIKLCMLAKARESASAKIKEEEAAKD

Regarding `Cc1cc(C)c(CNC(=O)c2cnn(-c3ccccc3)c2C)c(=O)[nH]1` [MC3629, N-((4,6-dimethyl-2-oxo-1,2-dihydropyridin-3-yl)methyl)-5-methyl-1-phenyl-1H-pyrazole-4-carboxamide], the inhibition – broadly, the share of the control response that was lost under treatment – at 200 µM on EZH1 complex (200 μM, substrate histone H3/H4 octamer) came to 62.4%; on G9a, 5.1%; at DNMT1, 0%. Also, the IC50 (in general, the concentration at which inhibition is half-maximal) at EZH1 complex (footnote of Supplementary Table 1) amounted to 138 µM. Besides, the cell death result in the test on DAOY-SLCs is reported as “induced cell death”. Further, the “H3K27me3 in tumor xenografts” value in test [1] (Western Blot) was “reduction”. Also, the “NANOG protein in tumors” value in test [1] (Western Blot) was “significantly lower levels”. In addition, in test [1] (Western Blot), the “apoptosis, level of cleaved caspase 3 in XT-MB” value is reported as “induction of apoptosis”. In addition, the “proliferating Ki67-positive cells in tumors” value in test [1] (immunostaining) is recorded as “significant reduction”. The “XT-MB growth (xenograft volume)” value in test [1] (nude mice) is recorded as “significantly impaired”.
